Here are results for 33 molecules from patent US10703733B2, “MCL-1 inhibitors” (Gilead Sciences, Inc., priority 2018, dated 2020).

In test [1] the target is MCL-1/Bim interaction (recombinant human MCL-1 protein, residues 171-327; biotinylated human Bim peptide, residues 51-76) (Homo sapiens (Human), UniProt Q07820). Kind of test: MCL-1/Bim Binding AlphaLISA Assay. To be noted: 0.0625 nM 6xHis-Mcl-1 (171-327), 0.0625 nM biotinylated-Bim peptide. Summed up:
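AlphaLISA with 0.0625 nM His-tagged MCL-1 (171-327) and 0.0625 nM biotinylated Bim (51-76) in 20 mM Hepes pH 7.5, 150 mM NaCl, 0.002% Brij 35, 1 mM DTT, 0.01% BSA. Compound preincubated 1 h with MCL-1, then Bim 2 h, acceptor beads 1 h, donor beads 1 h; percent inhibition against DMSO and no-protein/no-peptide controls.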
A general note: Bead proximity is the source of the signal in Alpha formats.

Another test concerns SKBR3 cells. Kind of test: SKBR3 Cell Viability Assay (CellTiter Glo). To be noted: CellTiter Glo luminescence, read-out: MCL-1 CV SKBR3 EC50. Format: cell-based. The method in brief:
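SKBR3 cells (6,000/well) in McCoy 5A + 10% FBS exposed to serially diluted compound for 72 h at 37° C., 5% CO2. Viability by CellTiter Glo luminescence; % inhibition normalized to DMSO (negative) and 10 μM puromycin (positive).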
Background: In ATP-based viability assays light output follows the ATP content of the culture.

Like-named read-outs stand apart in the source and are kept apart here.

MCL-1/Bim interaction (recombinant human MCL-1 protein, residues 171-327; biotinylated human Bim peptide, residues 51-76), sequence (Q07820 171-327): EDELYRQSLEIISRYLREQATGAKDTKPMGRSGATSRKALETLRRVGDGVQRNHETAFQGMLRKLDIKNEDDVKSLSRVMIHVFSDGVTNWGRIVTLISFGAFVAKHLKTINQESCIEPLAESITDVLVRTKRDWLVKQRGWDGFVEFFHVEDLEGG

On to `CCn1nccc1CCC(=O)N[S@@]1(=O)=NC(=O)c2ccc3c(c2)N(C[C@@H]2CC[C@H]2[C@@H](OC)/C=C/CCC1)C[C@@]1(CCCc2cc(Cl)ccc21)CO3` [Example 45], for which the IC50 in test [1] is 0.1 nM. The EC50 with SKBR3 cells (Homo sapiens, SK-BR-3, 72 h) was determined as 191 nM.
The corresponding values for `COc1nn(C)cc1C(=O)N[S@@]1(=O)=NC(=O)c2ccc3c(c2)N(C[C@@H]2CC[C@H]2[C@@H](OC)/C=C/[C@@H](OC)CC1)C[C@@]1(CCCc2cc(Cl)ccc21)CO3` [Example 394] are 1.72 nM and 4750 nM.
In the case of `CC[C@@H]1CC1NC(=O)N[S@@]1(=O)=NC(=O)c2ccc3c(c2)N(C[C@@H]2CC[C@H]2[C@@H](OC)/C=C/C[C@H](C)C1)C[C@@]1(CCCc2cc(Cl)ccc21)CO3` (stereo partly drawn) [Example 199], in test [1], the IC50 worked out at 0.117 nM. For the same molecule, the EC50 in the test with SKBR3 cells (Homo sapiens, SK-BR-3, 72 h) was 58.2 nM.
The corresponding values for `COCCNC(=O)N[S@@]1(=O)=NC(=O)c2ccc3c(c2)N(C[C@@H]2CC[C@H]2[C@@H](OC)/C=C/C[C@H](C)C1)C[C@@]1(CCCc2cc(Cl)ccc21)CO3` [Example 132] are 0.038 nM and 72 nM.
`CO[C@H]1/C=C/C[C@H](C)C[S@@](=O)(NC(=O)C2Cc3cccnc3C2)=NC(=O)c2ccc3c(c2)N(C[C@@H]2CC[C@H]21)C[C@@]1(CCCc2cc(Cl)ccc21)CO3` (stereo partly drawn) [Example 412]: the IC50 in test [1] turned out to be 0.072 nM. The EC50 with SKBR3 cells (Homo sapiens, SK-BR-3, 72 h) worked out at 179 nM.
Regarding `CO[C@H]1/C=C/C[C@H](C)C[S@@](=O)(NC(=O)N2CC3(CCO3)C2)=NC(=O)c2ccc3c(c2)N(C[C@@H]2CC[C@H]21)C[C@@]1(CCCc2cc(Cl)ccc21)CO3` [Example 230], the IC50 in test [1] came to 0.027 nM. In addition, the EC50 with SKBR3 cells (Homo sapiens, SK-BR-3, 72 h) amounted to 47.1 nM.
The corresponding values for `CO[C@H]1/C=C/C[C@H](C)C[S@@](=O)(NC(=O)N2CC(Oc3ccncc3)C2)=NC(=O)c2ccc3c(c2)N(C[C@@H]2CC[C@H]21)C[C@@]1(CCCc2cc(Cl)ccc21)CO3` [Example 275] are 0.053 nM and 90.4 nM.
On to `COC(=O)c1cc(C(=O)N[S@@]2(=O)=NC(=O)c3ccc4c(c3)N(C[C@@H]3CC[C@H]3[C@@H](OC)/C=C/C[C@H](C)C2)C[C@@]2(CCCc3cc(Cl)ccc32)CO4)cn1C` [Example 358], for which the IC50 in test [1] stood at 0.114 nM. Further, the EC50 in the test on SKBR3 cells (Homo sapiens, SK-BR-3, 72 h) turned out to be 95.1 nM.
The corresponding values for `COc1nn(C)cc1C(=O)N[S@@]1(=O)=NC(=O)c2ccc3c(c2)N(C[C@@H]2CC[C@H]2[C@@H](OC(=O)OC(C)C)/C=C/C[C@H](C)C1)C[C@@]1(CCCc2cc(Cl)ccc21)CO3` [Example 384] are 0.34 nM and 154 nM.
Take `CO[C@H]1/C=C/C[C@H](C)C[S@@](=O)(NC(=O)c2cnn(C)c2)=NC(=O)c2ccc3c(c2)N(C[C@@H]2CC[C@H]21)C[C@@]1(CCCc2cc(Cl)ccc21)CO3` [Example 148]: the half-maximal inhibitory concentration (IC50) in test [1] was 0.043 nM. Further, in the test with SKBR3 cells (Homo sapiens, SK-BR-3, 72 h), the EC50 was determined as 37.2 nM.
The corresponding values for `CCn1cc(C(=O)N[S@@]2(=O)=NC(=O)c3ccc4c(c3)N(C[C@@H]3CC[C@H]3[C@@H](OC)/C=C/CCC2)C[C@@]2(CCCc3cc(Cl)ccc32)CO4)cn1` [Example 405] are 0.113 nM and 196 nM.
For `CO[C@H]1/C=C/C[C@H](C)C[S@@](=O)(NC(=O)[C@H]2CCOC2)=NC(=O)c2ccc3c(c2)N(C[C@@H]2CC[C@H]21)C[C@@]1(CCCc2cc(Cl)ccc21)CO3` [Example 427], in that order: 0.104 nM and 332 nM.
For `CO[C@H]1/C=C/C[C@H](C)C[S@@](=O)(NC(=O)N[C@H]2C[C@H]2C)=NC(=O)c2ccc3c(c2)N(C[C@@H]2CC[C@H]21)C[C@@]1(CCCc2cc(Cl)ccc21)CO3` [Example 159], in that order: 0.087 nM and 144 nM.
Take `CO[C@H]1/C=C/C[C@H](C)C[S@@](=O)(NC(=O)N[C@H]2C[C@](C)(OC)C2)=NC(=O)c2ccc3c(c2)N(C[C@@H]2CC[C@H]21)C[C@@]1(CCCc2cc(Cl)ccc21)CO3` [Example 192]: the IC50 in test [1] stood at 0.054 nM. Besides, in the test with SKBR3 cells (Homo sapiens, SK-BR-3, 72 h), the EC50 amounted to 39.7 nM.
For `CO[C@H]1/C=C/C[C@H](C)C[S@@](=O)(NC(=O)c2cc(C)co2)=NC(=O)c2ccc3c(c2)N(C[C@@H]2CC[C@H]21)C[C@@]1(CCCc2cc(Cl)ccc21)CO3` [Example 203], in that order: 0.073 nM and 76.1 nM.
The corresponding values for `CO[C@H]1/C=C/C[C@H](C)[C@@H](C)[S@@](=O)(NC(=O)NC2CC2)=NC(=O)c2ccc3c(c2)N(C[C@@H]2CC[C@H]21)C[C@@]1(CCCc2cc(Cl)ccc21)CO3` [Example 414] are 0.217 nM and 154 nM.
The corresponding values for `COCC12CC(NC(=O)N[S@@]3(=O)=NC(=O)c4ccc5c(c4)N(C[C@@H]4CC[C@H]4[C@@H](OC)/C=C/C[C@H](C)C3)C[C@@]3(CCCc4cc(Cl)ccc43)CO5)(C1)C2` [Example 211] are 0.082 nM and 54.2 nM.
Consider `CO[C@H]1/C=C/C[C@H](C)C[S@@](=O)(NC(=O)c2cn(C)nc2OCC2OCCO2)=NC(=O)c2ccc3c(c2)N(C[C@@H]2CC[C@H]21)C[C@@]1(CCCc2cc(Cl)ccc21)CO3` [Example 356], for which the IC50 in test [1] came to 0.081 nM. Also, the EC50 in the test on SKBR3 cells (Homo sapiens, SK-BR-3, 72 h) worked out at 233 nM.
The corresponding values for `CO[C@H]1/C=C/C[C@H](C)C[S@@](=O)(NC(=O)CCc2cnn(C)c2)=NC(=O)c2ccc3c(c2)N(C[C@@H]2CC[C@H]21)C[C@@]1(CCCc2cc(Cl)ccc21)CO3` [Example 142] are 0.097 nM and 416 nM.
With `CO[C@H]1/C=C/C[C@H](C)[C@@H](C)[S@@](=O)(NC(=O)CO[C@H]2CCOC[C@H]2F)=NC(=O)c2ccc3c(c2)N(C[C@@H]2CC[C@H]21)C[C@@]1(CCCc2cc(Cl)ccc21)CO3` [Example 133], the IC50 in test [1] amounted to 0.051 nM. In addition, in the test on SKBR3 cells (Homo sapiens, SK-BR-3, 72 h), the EC50 came out at 130 nM.
For `COCC1(NC(=O)N[S@@]2(=O)=NC(=O)c3ccc4c(c3)N(C[C@@H]3CC[C@H]3[C@@H](OC)/C=C/C[C@H](C)C2)C[C@@]2(CCCc3cc(Cl)ccc32)CO4)CC1` [Example 131], in that order: 0.046 nM and 162 nM.
The corresponding values for `CO[C@H]1/C=C/C[C@H](C)C[S@@](=O)(NC(=O)N[C@H]2C[C@@](C)(O)C2)=NC(=O)c2ccc3c(c2)N(C[C@@H]2CC[C@H]21)C[C@@]1(CCCc2cc(Cl)ccc21)CO3` [Example 186] are 0.066 nM and 168 nM.
The corresponding values for `CO[C@H]1/C=C/CCC[S@@](=O)(NC(=O)NCc2ccnn2C)=NC(=O)c2ccc3c(c2)N(C[C@@H]2CC[C@H]21)C[C@@]1(CCCc2cc(Cl)ccc21)CO3` [Example 75] are 0.3 nM and 692 nM.
On to `CO[C@H]1/C=C/C[C@H](C)C[S@@](=O)(NC(=O)N2CC(C(F)F)C2)=NC(=O)c2ccc3c(c2)N(C[C@@H]2CC[C@H]21)C[C@@]1(CCCc2cc(Cl)ccc21)CO3` [Example 351], for which the IC50 in test [1] is 0.035 nM. Further, the EC50 with SKBR3 cells (Homo sapiens, SK-BR-3, 72 h) was determined as 58.8 nM.
For `CO[C@H]1/C=C/C[C@H](C)C[S@@](=O)(NC(=O)c2cc3n(n2)CCO3)=NC(=O)c2ccc3c(c2)N(C[C@@H]2CC[C@H]21)C[C@@]1(CCCc2cc(Cl)ccc21)CO3` [Example 219], in that order: 0.099 nM and 146 nM.
As for `CO[C@H]1/C=C/C[C@H](C)C[S@@](=O)(NC(=O)N[C@@H]2C[C@H]2c2cnn(C)c2)=NC(=O)c2ccc3c(c2)N(C[C@@H]2CC[C@H]21)C[C@@]1(CCCc2cc(Cl)ccc21)CO3` (single isomer, unassigned) [Example 183], the concentration for half-maximal inhibition (IC50) in test [1] was found to be 0.132 nM. In addition, in the test on SKBR3 cells (72 hours), the EC50 was 195 nM.
As to `CO[C@H]1/C=C/CCC[S@@](=O)(NC(=O)CCc2cnn(C)n2)=NC(=O)c2ccc3c(c2)N(C[C@@H]2CC[C@H]21)C[C@@]1(CCCc2cc(Cl)ccc21)CO3` [Example 46], in test [1], the IC50 was 0.1 nM. Moreover, in the test on SKBR3 cells (Homo sapiens, SK-BR-3, 72 h), the EC50 turned out to be 512 nM.
For `CO[C@H]1/C=C/CCC[S@@](=O)(NC(=O)CCc2ccc(Cl)cc2)=NC(=O)c2ccc3c(c2)N(C[C@@H]2CC[C@H]21)C[C@@]1(CCCc2cc(Cl)ccc21)CO3` [Example 90], in that order: 0.5 nM and 4560 nM.
The corresponding values for `COc1nnccc1C(=O)N[S@@]1(=O)=NC(=O)c2ccc3c(c2)N(C[C@@H]2CC[C@H]2[C@@H](OC)/C=C/C[C@H](C)C1)C[C@@]1(CCCc2cc(Cl)ccc21)CO3` [Example 458] are 0.079 nM and 376 nM.
The corresponding values for `CO[C@H]1/C=C/C[C@H](C)C[S@@](=O)(NC(=O)N[C@@H]2CC2(F)F)=NC(=O)c2ccc3c(c2)N(C[C@@H]2CC[C@H]21)C[C@@]1(CCCc2cc(Cl)ccc21)CO3` [Example 440] are 0.051 nM and 284 nM.
Regarding `COC(=O)[C@]1(C)C[C@H](NC(=O)N[S@@]2(=O)=NC(=O)c3ccc4c(c3)N(C[C@@H]3CC[C@H]3[C@@H](OC)/C=C/C[C@H](C)C2)C[C@@]2(CCCc3cc(Cl)ccc32)CO4)C1` [Example 305], the IC50 in test [1] was 0.088 nM. Also, the EC50 with SKBR3 cells (Homo sapiens, SK-BR-3, 72 h) was 140 nM.
The corresponding values for `CO[C@H]1/C=C/CCCS(=O)(NC(=O)CCn2ccnn2)=NC(=O)c2ccc3c(c2)N(C[C@@H]2CC[C@H]21)C[C@@]1(CCCc2cc(Cl)ccc21)CO3` (single isomer, unassigned) [Example 54] are 0.2 nM and 3810 nM.
The corresponding values for `CCN(C)C(=O)N[S@@]1(=O)=NC(=O)c2ccc3c(c2)N(C[C@@H]2CC[C@H]2[C@@H](OC)/C=C/CCC1)C[C@@]1(CCCc2cc(Cl)ccc21)CO3` [Example 77] are 5.3 nM and 6040 nM.

One may read the IC50 as the midpoint of a concentration-inhibition curve. The term EC50 denotes the midpoint of the concentration-response curve.
